Some results are limits rather than exact numbers.

One series has as its system rat liver transcriptome. As to the kind of experiment: Liver transcriptomics. In kind it is in vivo. As for the experimental part:
Total RNA was purified from liver samples with RNAdvance Tissue™ kit by Beckman Coulter Life Sciences according to manufacturer’s instructions. The method was carried out in an automated robotic solution with Biomek i7 Hybrid™. The concentration and quality of isolated RNA molecules were measured applying parallel capillary electrophoresis using Agilent Fragment Analyzer 5300 (DNF-471-33-SS Total RNA 15nt). The data were analysed in ProSize data analysis software to derive the concentration and RNA quality numbers (RQN) for individual samples.
The double-stranded cDNA obtained with Poly (A)-mRNA enrichment (500 ng total RNA input) was subjected to library preparation using KAPA Hyper Prep Kit (Kapa Biosystems, MA, USA) according to manufacturer’s protocol. The libraries were pooled in a single library and were sequenced on an Illumina NovaSeq6000 with a v1.5 SP 100 cycle kit as paired-end reads to PE51bp. The sequencing runs were carried out according to the manufacturer’s instructions.

A further series deals with T1, Adenosine Transporter (Homo sapiens, UniProt Q99808).
T1 construct: Eurofins
As to the kind of experiment: Functional assay. The format is cell-based. As for the experimental part: (§1) Secondary pharmacology assays were performed at Eurofins using standard experimental techniques against a total of 86 targets across a broad pharmacological space. Assay details along with experimental protocols are described at https://www.eurofinsdiscoveryservices.com. […] Assays measuring substrate turnover or phosphorylation by isolated proteins were used for kinase and enzyme targets, allowing direct determination of the mode of action of the compounds. […] Assays were run in eight points concentration response mode with half log dilutions and IC50, EC50 or Ki (Cheng and Prusoff [1973]) values determined.

Series [1] relates to HCT116 MTAP KO cells. Nature of the series: HCT116 cell SDMA assay, MTAP KO. In kind it is cell-based. An excerpt:
(§2) The structure and in vitro properties of the compound are shown in Table 1 together with potency in the HCT116 isogenic cell line (MTAP WT and KO) and in the MAT2A biochemical assay (SAM endpoint).

The next series deals with HepG2 Spheroid. Nature of the series: HepG2 C3A 3D spheroid cytotoxicity. In kind it is cell-based. The conditions noted are these: 3D spheroids; read-out: HepG2 Spheroid Cytotox IC50. From the text:
(§3) Full curve IC50 (µM) for hERG (human ether-a-go-go-related gene) and the cardiac ion channel panel (sodium and potassium ion channels; Nav1.5, IKs, Kv4.3), along with the L-type Calcium channel (Cav-1.2 Ver; verapamil, DIL; diltiazem), HepG2 C3A 3D spheroids, HepG2 C3A (2D cultures in glucose or galactose media), and THP1 cytotoxicity.

In another series the test system is methionine. As to the kind of experiment: Targeted LC–MS of methionine in plasma, liver, brain and heart. The format is in vivo, rat. The conditions noted are these: 30 mg/kg BID. Here is the method:
SAM and methionine levels were quantified in plasma samples and tissues using Ultra Performance Liquid Chromatography (UPLC) coupled with quantitative MS in ESI positive ion mode as described in Supplementary M&M.
For LCMS analysis, standard curves were spiked to give a calibrated range of 1.0 – 1000 nM for SAM and 1.0 – 2000 for methionine. 5 µL of standard spike solution was added to 45 µL of ACN/MeOH/H2O (40/40/20 v/v/v) and 2.5 µL of deuterated citrulline is added as an internal standard. A further calibration curve was prepared with 5 µL blank mouse plasma, 5 µL of standard and 40 µL of 40:40:20 Acetonitrile:Methanol:0.5% formic acid (Aq) with 2.5 µL of deuterated citrulline was used to investigate matrix suppression effects. Blank plasma was also diluted 1:10 with ACN/MeOH/H2O (40/40/20 v/v/v) and was also analysed to establish systemic biomarker levels.
Metabolomic sample preparation and analysis. Tissue samples (liver, brain, heart) were extracted with 1 mL of ACN/MeOH/H2O 40/40/20 v/v/v per 100 mg material in a PrecellysCK28K-2 mL tube. Tissues were homogenised/extracted in 3x20 sec shake at 5500 rpm and centrifuged for 5 min at 10,621g. After centrifugation a maximum of 800 µL clear supernatant was transferred to cryovials and the same amount of extraction solvent used in the first step was added to tissue precipitate. Extraction procedure was repeated as above and clear supernatants combined in the same cryovial and vial labelled as polar metabolite extract. On the remaining tissue pellet 1ml (per100mg tissue material) of Butanol/MeOH 3/1v/v was added and the above extraction sequence applied. Resulted clear supernatant transferred to a clean cryovial and labelled as lipid extract. All samples kept at the lowest available temperature (0 °C) throughout the extraction process and stored at -80 °C until further analysis.

Series [2] is described as follows: Rat plasma fraction unbound by rapid equilibrium dialysis. The format is in vitro ADME.
Series [3] relates to HCT116 MTAP KO cells. Nature of the series: HCT116 cell SAM assay, MTAP KO. The format is cell-based.
Source text: as §2

On the set-up of series [4]: method as in Atkinson et al. [2024]. The conditions noted are these: ref Atkinson et al. [2024]; cited from earlier work.
A further series addresses IKs (Homo sapiens, UniProt P51787). As to the kind of experiment: Cardiac ion channel panel. The format is cell-based. The conditions noted are these: Full curve.
Source text: as §3

The target of a further series is Kv4.3 (Homo sapiens, UniProt Q9UK17). As to the kind of experiment: Cardiac ion channel panel. In kind it is cell-based. The conditions noted are these: Full curve.
Source text: as §3

A further series concerns the target NaV1.5 (Homo sapiens, UniProt Q14524). Nature of the series: Cardiac ion channel panel. The format is cell-based. The note with it: Full curve.
Source text: as §3

For the next series, the target named is T2, Thromboxane A2 synthase (Homo sapiens, UniProt P24557).
T2 construct: Eurofins
As to the kind of experiment: Enzyme assay. In kind it is biochemical. As for the experimental part: as §1

In series [5] the target is T3, Phosphodiesterase PDE10A2 (Homo sapiens, UniProt Q9Y233).
T3 construct: Eurofins
As to the kind of experiment: Enzyme assay. The format is biochemical. Here is the method:
as §1

The target in series [6] is T4, Fibroblast growth factor receptor 1 kinase (FGFR1 kinase) (Homo sapiens, UniProt P11362).
T4 construct: Eurofins
Nature of the series: Enzyme assay. The format is biochemical. As for the experimental part: as §1

The target in series [7] is T5, Kinase insert domain receptor kinase (KDR) (Homo sapiens, UniProt P35968).
T5 construct: Eurofins
Nature of the series: Enzyme assay. The format is biochemical. As for the experimental part: as §1

The target in series [8] is T6, Glycogen synthase kinase-3 β (Homo sapiens, UniProt P49841).
T6 construct: Eurofins
As to the kind of experiment: Enzyme assay. The format is biochemical. Here is the method: as §1

The target of a further series is T7, Aurora A kinase (Homo sapiens, UniProt O14965).
T7 construct: Eurofins
Nature of the series: Enzyme assay. In kind it is biochemical. Here is the method:
as §1

The target in another series is T8, Phosphodiesterase PDE4D2 (Homo sapiens, UniProt Q08499).
T8 construct: Eurofins
Nature of the series: Enzyme assay. The format is biochemical. Here is the method:
as §1

The target of series [9] is T9, Prostaglandin-endoperoxide synthase 2 (COX2) (Homo sapiens, UniProt P35354).
T9 construct: Eurofins
Nature of the series: Enzyme assay. In kind it is biochemical. Here is the method:
as §1

Series [10] has as its target T10, Neurotrophic receptor kinase 1 (NRK1) (Homo sapiens, UniProt P04629).
T10 construct: Eurofins
As to the kind of experiment: Enzyme assay. The format is biochemical. Here is the method: as §1

Sequence of IKs (P51787 whole entry): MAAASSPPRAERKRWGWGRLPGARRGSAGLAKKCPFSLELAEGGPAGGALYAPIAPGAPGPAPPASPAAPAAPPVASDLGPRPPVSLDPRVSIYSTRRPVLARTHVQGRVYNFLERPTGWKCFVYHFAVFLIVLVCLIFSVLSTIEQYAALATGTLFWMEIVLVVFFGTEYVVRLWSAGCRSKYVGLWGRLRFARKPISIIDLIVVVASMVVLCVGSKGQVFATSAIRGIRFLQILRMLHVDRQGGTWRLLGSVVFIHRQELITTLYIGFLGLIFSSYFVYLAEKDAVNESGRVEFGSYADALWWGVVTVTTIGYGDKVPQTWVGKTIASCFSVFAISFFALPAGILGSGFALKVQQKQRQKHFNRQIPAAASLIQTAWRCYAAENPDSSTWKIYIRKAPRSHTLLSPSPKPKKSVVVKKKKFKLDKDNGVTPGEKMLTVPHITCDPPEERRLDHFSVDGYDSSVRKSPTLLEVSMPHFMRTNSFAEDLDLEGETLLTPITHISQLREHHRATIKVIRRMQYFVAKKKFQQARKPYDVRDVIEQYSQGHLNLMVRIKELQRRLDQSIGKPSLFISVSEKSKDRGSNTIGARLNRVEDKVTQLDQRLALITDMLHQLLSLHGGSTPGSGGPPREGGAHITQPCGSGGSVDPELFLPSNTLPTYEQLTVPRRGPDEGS
T8 sequence (Q08499 303-809 limits assumed): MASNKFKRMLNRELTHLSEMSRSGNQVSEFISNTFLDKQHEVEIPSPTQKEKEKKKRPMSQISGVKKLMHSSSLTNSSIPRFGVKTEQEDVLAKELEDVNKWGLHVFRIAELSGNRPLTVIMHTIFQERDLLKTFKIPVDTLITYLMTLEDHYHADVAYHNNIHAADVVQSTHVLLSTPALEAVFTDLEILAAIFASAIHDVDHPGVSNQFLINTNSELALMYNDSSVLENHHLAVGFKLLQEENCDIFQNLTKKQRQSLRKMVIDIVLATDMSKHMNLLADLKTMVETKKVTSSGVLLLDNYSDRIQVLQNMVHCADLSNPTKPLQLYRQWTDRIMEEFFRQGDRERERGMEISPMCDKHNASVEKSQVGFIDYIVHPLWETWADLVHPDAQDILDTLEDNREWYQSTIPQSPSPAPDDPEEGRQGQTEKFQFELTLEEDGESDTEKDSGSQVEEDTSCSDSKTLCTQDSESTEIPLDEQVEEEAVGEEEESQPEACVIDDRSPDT
T1 sequence (Q99808 2-456 limits assumed): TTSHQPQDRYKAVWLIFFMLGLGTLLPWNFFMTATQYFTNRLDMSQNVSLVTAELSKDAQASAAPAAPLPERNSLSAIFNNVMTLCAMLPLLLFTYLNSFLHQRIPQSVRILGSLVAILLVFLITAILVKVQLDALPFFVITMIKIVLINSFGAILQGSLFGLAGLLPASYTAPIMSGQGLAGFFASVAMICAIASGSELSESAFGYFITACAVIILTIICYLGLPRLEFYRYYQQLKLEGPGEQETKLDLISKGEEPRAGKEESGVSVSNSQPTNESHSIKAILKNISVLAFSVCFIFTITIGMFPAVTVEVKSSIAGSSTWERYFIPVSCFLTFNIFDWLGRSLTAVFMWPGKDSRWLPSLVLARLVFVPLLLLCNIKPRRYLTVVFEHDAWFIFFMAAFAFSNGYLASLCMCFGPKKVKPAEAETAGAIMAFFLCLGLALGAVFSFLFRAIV
T9 sequence (P35354 18-604): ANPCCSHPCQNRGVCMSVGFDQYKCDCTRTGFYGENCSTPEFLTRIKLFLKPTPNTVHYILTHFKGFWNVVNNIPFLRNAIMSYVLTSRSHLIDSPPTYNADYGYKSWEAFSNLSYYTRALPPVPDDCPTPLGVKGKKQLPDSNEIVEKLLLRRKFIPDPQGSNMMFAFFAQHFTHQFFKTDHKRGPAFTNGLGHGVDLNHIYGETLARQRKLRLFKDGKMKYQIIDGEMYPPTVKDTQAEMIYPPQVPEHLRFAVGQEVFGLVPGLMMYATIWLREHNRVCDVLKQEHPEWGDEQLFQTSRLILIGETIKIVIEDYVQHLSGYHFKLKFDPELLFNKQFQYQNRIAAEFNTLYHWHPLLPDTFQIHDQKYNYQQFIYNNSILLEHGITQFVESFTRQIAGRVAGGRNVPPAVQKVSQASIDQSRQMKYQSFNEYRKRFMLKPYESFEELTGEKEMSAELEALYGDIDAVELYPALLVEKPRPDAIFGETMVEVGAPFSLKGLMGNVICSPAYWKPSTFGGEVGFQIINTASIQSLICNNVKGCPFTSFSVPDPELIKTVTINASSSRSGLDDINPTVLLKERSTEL
T5 sequence (P35968 20-1356): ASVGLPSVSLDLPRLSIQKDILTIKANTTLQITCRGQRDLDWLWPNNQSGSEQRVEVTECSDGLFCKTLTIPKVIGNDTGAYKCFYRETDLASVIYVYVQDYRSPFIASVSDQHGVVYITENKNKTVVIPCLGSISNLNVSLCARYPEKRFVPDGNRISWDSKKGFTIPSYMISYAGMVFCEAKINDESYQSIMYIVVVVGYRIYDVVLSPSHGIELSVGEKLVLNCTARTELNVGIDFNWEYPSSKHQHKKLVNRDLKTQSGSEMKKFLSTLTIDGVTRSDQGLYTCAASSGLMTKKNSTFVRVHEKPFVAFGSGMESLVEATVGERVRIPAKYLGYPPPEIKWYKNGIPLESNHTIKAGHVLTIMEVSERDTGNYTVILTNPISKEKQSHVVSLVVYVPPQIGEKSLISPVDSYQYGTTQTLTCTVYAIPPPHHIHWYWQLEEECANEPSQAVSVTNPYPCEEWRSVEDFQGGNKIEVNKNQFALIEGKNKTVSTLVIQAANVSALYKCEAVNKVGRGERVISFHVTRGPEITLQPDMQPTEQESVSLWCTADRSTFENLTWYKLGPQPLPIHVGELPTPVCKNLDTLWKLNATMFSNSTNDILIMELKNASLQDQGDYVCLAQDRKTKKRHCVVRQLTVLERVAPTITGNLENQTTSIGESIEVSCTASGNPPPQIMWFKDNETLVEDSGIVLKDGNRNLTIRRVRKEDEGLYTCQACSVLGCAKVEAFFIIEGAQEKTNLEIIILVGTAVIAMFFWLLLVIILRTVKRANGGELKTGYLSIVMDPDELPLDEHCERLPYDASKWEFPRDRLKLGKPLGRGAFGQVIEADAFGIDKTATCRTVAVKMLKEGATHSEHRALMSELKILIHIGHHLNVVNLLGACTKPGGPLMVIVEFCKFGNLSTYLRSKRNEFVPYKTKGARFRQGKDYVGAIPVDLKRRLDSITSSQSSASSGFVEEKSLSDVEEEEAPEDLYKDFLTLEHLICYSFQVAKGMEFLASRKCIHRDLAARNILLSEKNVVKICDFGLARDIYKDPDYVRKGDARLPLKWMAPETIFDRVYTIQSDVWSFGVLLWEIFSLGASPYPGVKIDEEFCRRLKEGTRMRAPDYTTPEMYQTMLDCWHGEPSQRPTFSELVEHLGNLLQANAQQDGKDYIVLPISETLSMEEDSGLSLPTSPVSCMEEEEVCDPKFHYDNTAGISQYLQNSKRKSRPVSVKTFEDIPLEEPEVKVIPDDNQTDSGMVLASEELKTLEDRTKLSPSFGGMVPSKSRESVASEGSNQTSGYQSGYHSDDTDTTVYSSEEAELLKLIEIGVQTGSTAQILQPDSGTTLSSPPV
T7 sequence (O14965 whole entry): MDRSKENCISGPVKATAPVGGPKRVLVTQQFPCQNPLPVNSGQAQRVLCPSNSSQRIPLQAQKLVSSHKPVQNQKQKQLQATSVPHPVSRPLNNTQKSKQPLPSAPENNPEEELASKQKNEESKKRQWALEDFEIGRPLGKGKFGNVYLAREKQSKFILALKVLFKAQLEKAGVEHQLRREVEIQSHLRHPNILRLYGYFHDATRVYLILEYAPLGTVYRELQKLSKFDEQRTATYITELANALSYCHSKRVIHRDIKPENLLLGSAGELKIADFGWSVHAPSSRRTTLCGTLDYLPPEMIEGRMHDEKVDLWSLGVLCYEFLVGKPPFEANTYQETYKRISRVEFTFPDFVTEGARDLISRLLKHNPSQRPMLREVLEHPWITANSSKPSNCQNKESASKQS
T3 sequence (Q9Y233 267-1055 limits assumed): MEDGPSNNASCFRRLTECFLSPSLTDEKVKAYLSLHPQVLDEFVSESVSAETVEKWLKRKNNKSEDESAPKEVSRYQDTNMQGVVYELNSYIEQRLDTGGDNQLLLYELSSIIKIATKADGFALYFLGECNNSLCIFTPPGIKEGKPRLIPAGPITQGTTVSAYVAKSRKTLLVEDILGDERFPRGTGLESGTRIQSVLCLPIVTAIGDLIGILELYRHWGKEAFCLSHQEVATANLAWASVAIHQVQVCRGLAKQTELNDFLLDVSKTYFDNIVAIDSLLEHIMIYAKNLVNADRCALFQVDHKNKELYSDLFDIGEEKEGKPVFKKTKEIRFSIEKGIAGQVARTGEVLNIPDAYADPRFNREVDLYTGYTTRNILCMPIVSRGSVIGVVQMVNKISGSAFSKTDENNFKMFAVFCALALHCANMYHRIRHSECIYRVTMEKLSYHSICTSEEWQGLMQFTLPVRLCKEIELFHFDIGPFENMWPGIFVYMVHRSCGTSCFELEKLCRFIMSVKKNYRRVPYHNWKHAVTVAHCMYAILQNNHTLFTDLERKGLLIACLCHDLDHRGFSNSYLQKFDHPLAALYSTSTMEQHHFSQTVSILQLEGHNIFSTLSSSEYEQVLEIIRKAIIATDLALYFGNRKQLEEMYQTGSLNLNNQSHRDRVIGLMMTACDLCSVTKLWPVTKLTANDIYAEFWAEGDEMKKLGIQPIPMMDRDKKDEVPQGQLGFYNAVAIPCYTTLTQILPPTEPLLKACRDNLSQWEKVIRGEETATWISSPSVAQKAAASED

`Cn1cc2cc(-c3cc4[nH]nc(C5CC5)c4n(-c4ccc(OC(F)F)cc4)c3=O)ccc2n1` [AZ’9567]: the “differentially expressed liver genes” value with rat liver transcriptome (high dose (30 mg/kg BID)) came out at 1638; in the series on rat liver transcriptome (low dose (3 mg/kg BID)) it was 2080. Moreover, the “Pharmacological mode of action” value on Adenosine Transporter is reported as “Antagonist”. Besides, the “HCT116 cell SDMA pIC50 MTAP KO” value in the series on HCT116 MTAP KO cells [1] amounted to 8.6. The IC50 with HepG2 Spheroid is 58.7 µM; against IKs it was above 33.3 µM; against Kv4.3, above 40 µM; on NaV1.5, above 40 µM; on Thromboxane A2 synthase, 9 µM; in series [5], 10.8 µM. In addition, the IC50 in series [6] was determined as 49.9 µM; in [7], 9.5 µM; in series [8], 1.6 µM; on Aurora A kinase, 84.1 µM; at Phosphodiesterase PDE4D2, 4.1 µM; in series [9], 44 µM. The compound also gave a half-inhibitory concentration (IC50) in series [10] of 38.3 µM. Also, the “Brain Methionine % Control” value in the series on methionine is recorded as 1835 % Control. Further, in the series on methionine, the “Heart Methionine % Control” value is recorded as 1316 % Control. Moreover, in the series with methionine, the “Liver Methionine % Control” value is recorded as 2314 % Control. In the series with methionine, the “Plasma Methionine % Control” value worked out at 1557 % Control. The “rat plasma fraction unbound” value in series [2] was 0.00614. In the series with HCT116 MTAP KO cells [3], the “HCT116 cell SAM MTAP KO pIC50” value is on record as 8.9. Further, the “brain penetrance Kpu,u” value in series [4] is 0.03 ± 0.01.

Source of the values: publication PMC11272821, “Mechanistic safety assessment via multi-omic characterisation of systemic pathway perturbations following in vivo MAT2A inhibition” (Archives of Toxicology, 2024).
